Literature values as cited in patent US12357549B2, “Method for dyeing keratinous material, comprising the use of an organosilicon compound, a dyeing compound, a sealing reagent, and a pre-treatment agent” (Henkel AG & Co. KGaA, priority 2021, dated 2025).

Conditions: 25° C.

Row | solubility in water | SMILES | further results
1 | 2500 µg/mL | Nc1cc(S(=O)(=O)[O-])cc2cc(S(=O)(=O)[O-])c(N=Nc3ccccc3)c(O)c12.[Na+].[Na+] [Acid Red 33, disodium salt of 5-amino-4-hydroxy-3-(phenylazo)-naphthalene-2,7-disulfonate] | 
2 |  | O=C([O-])C1=NN(c2ccc(S(=O)(=O)[O-])cc2)C(=O)C1N=Nc1ccc(S(=O)(=O)[O-])cc1.[Na+].[Na+].[Na+] (centres unmarked) [Acid Yellow 23, trisodium salt of 4,5-dihydro-5-oxo-1-(4-sulfophenyl)-4-((4-sulfophenyl)azo)-1H-pyrazole-3-carboxylic acid] | solubility in water (in words): readily soluble in water
3 |  | CCN(Cc1cccc(S(=O)(=O)[O-])c1)c1ccc(C(=C2C=CC(=[N+](CC)Cc3cccc(S(=O)(=O)[O-])c3)C=C2)c2ccccc2S(=O)(=O)[O-])cc1.[Na+].[Na+] [Acid Blue 9] | water solubility: more than 20 wt %
4 | more than 7 g/L | O=S(=O)([O-])c1ccc(N=Nc2c(O)ccc3ccccc23)cc1.[Na+] [Acid Orange 7, sodium salt of 4-[(2-hydroxy-1-naphthyl)azo]benzenesulfonate] | 

Row | SMILES | solubility in water | further results
5 | O=C([O-])c1c(Cl)c(Cl)c(Cl)c(Cl)c1-c1c2c(Br)cc(=O)c(Br)c-2oc2c(Br)c(O)cc(Br)c12.O=C([O-])c1c(Cl)c(Cl)c(Cl)c(Cl)c1-c1c2c(Br)cc(=O)c(Br)c-2oc2c(Br)c(O)cc(Br)c12.[Na+].[Na+] [Acid Red 92, disodium salt of 3,4,5,6-tetrachloro-2-(1,4,5,8-tetrabromo-6-hydroxy-3-oxoxanthen-9-yl)benzoic acid] | greater than 10 g/L | 
